Structures can show the parent of a compound that is named as a salt.
What was measured:
PKCθ = target: T1, PKCθ (Homo sapiens, UniProt Q04759); assay: In vitro enzyme assay (time-resolved fluorescence kinase assay), PKCθ, 100 μM ATP; type: biochemical
T1 construct: His6; purchased Millipore; host or cells: baculovirus in Sf21 cells
Outline: (§1)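 Read-out was time-resolved fluorescence, corrected for a minus-enzyme blank and converted to percent activity relative to enzyme without drug. They were stopped with EDTA.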

PKCα = target: T2, PKCα (Homo sapiens, UniProt P17252); assay: In vitro enzyme assay (time-resolved fluorescence kinase assay), PKCα, 100 μM ATP; type: biochemical; settings: 100 μM ATP; read-out: PKCα enzyme IC50
T2 construct: His6; purchased Millipore; host or cells: baculovirus in Sf21 cells
Outline: as §1

[1] = tested on: CD3/CD28 induced IL-2 in human T-Blasts; assay: T-Blasts CD3/CD28 induced IL-2 assay; type: cell-based; settings: read-out: CD3/CD28-stimulated IL2 in T-blasts EC50
Outline: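 IL-2 in supernatants read after 24 h 37° C stimulation of human PHA T-blasts (2×10^5/well) with anti-CD3/anti-CD28 at 5 μg/mL final. Duplicate eight-point, 1/3-step compound series added 30 min before stimulus; residual cells checked by MTT for toxicity.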

T1 sequence (Q04759 whole entry): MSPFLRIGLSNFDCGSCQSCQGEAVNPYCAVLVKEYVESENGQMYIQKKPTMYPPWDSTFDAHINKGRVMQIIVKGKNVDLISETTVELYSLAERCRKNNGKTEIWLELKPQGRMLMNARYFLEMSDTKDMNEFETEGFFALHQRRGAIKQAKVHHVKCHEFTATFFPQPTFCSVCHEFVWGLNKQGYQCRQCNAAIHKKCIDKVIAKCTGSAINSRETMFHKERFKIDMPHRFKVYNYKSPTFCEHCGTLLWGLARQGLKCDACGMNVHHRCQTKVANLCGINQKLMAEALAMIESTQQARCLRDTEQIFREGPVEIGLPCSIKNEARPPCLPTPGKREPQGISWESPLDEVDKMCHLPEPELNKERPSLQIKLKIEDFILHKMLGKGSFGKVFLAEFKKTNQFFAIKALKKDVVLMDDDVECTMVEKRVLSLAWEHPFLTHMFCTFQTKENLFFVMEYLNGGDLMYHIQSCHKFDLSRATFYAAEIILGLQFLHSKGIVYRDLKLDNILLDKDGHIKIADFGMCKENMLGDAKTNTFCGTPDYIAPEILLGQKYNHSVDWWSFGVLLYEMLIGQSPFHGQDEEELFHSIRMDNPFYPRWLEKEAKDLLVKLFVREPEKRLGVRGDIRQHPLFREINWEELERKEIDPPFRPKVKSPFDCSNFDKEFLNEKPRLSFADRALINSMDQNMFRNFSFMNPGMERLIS

| SMILES | IC50 (PKCθ) [nM] | IC50 (PKCα) [nM] | EC50 [1] [nM] |
| --- | --- | --- | --- |
| COc1ccc2cc(-c3cc4c(cc3NC3CNC3)N3C(=NNC(=O)C3C)CO4)ccc2c1 (racemic) [Example 35] | < 250 | 1000 to 10000 | < 250 |
| C[C@@H]1CN(C)CCN1c1cc2c(cc1-c1ccccc1F)OCC1=NNC(=O)[C@@H](C)N12 [Example 230] | < 250 | 250 to 1000 | < 250 |
| CC1C(=O)NN=C2COc3cc(-c4cccc(OC(F)(F)F)c4)c(NC4CNC4)cc3N21 (racemic) [Example 16] | 250 to 1000 | 1000 to 10000 | < 250 |
| CC1C(=O)NN=C2COc3ccc(C4CCNC(Cc5ccccc5)C4)cc3N21 (stereo not drawn) [Example 86, 9-(2-Benzylpiperidin-4-yl)-1-methyl-3,5-dihydrobenzo[5,6][1,4]oxazino[3,4-c][1,2,4]triazin-2(1H)-one trifluoroacetic acid] | < 250 | 1000 to 10000 | < 250 |
| CC1C(=O)NN=C2COc3cc(-c4ccc(C#N)cc4)c(NC4CNC4)cc3N21 (racemic) [Example 41] | 250 to 1000 | 1000 to 10000 | 250 to 1000 |
| C[C@@H]1C(=O)NN=C2COc3cc(-c4ccc(Cl)cc4)c(NC4CNC4)cc3N21 [Example 7] | < 250 | 1000 to 10000 | < 250 |
| C[C@H]1C(=O)NN=C2COc3cc(-c4ccccc4)c(NC4CNC4)cc3N21 (single isomer, unassigned) [Example 1-2, trifluoroacetic acid] | 250 to 1000 | 1000 to 10000 | 1000 to 10000 |
| CC1C(=O)NN=C2COc3cc(C(F)(F)F)c(CC4CNC4)cc3N21 (stereo not drawn) [Example 99, 6-Azetidin-3-ylmethyl-4-methyl-7-trifluoromethyl-2,10-dihydro-9-oxa-1,2,4a-triaza-phenanthren-3-one trifluoroacetic acid] | < 250 | 1000 to 10000 | 250 to 1000 |
| C[C@@H]1CN(C)CC[C@@H]1c1cc2c(cc1-c1ccccc1CO)OCC1=NNC(=O)[C@@H](C)N12 [Example 205] | < 250 | 250 to 1000 | < 250 |
| Cc1ccc(F)c(-c2cc3c(cc2NC2CNC2)N2C(=NNC(=O)C2C)CO3)c1 (racemic) [Example 31] | < 250 | 1000 to 10000 | 250 to 1000 |
| CC1C(=O)NN=C2COc3cc(C(C)C(F)(F)F)c(NC4(C)CNC4)cc3N21 (stereo not drawn) [Example 63] | < 250 | 1000 to 10000 | < 250 |
| CC(C)c1cc2c(cc1[C@@H](C)C1(C)CN(CCO)C1)N1C(=NNC(=O)[C@H]1C)CO2 [Example 138, (R)-6-{(R)-1-[1-(2-Hydroxy-ethyl)-3-methyl-azetidin-3-yl]-ethyl}-7-isopropyl-4-methyl-2,10-dihydro-9-oxa-1,2,4a-triaza-phenanthren-3-one hydrochloric acid] | < 250 | 250 to 1000 | 250 to 1000 |
| COCCN1CC(C)([C@H](C)c2cc3c(cc2-c2ccccc2F)OCC2=NNC(=O)[C@@H](C)N23)C1 [Example 145] | < 250 | 1000 to 10000 | 250 to 1000 |
| CC1C(=O)NN=C2COc3cc(-c4ccc(C(F)(F)F)cc4)c(NC4CNC4)cc3N21 (racemic) [Example 14] | 250 to 1000 | 1000 to 10000 | < 250 |
| CC1C(=O)NN=C2COc3ccc(C4CCNCC4(C)C)cc3N21 (stereo not drawn) [Example 74] | < 250 | 1000 to 10000 | 250 to 1000 |
| CC(C)N1CC(C)(N(C)c2cc3c(cc2-c2ccccc2)OCC2=NNC(=O)C(C)N23)C1 (stereo not drawn) [Example 91] | < 250 | 250 to 1000 | < 250 |
| Cc1cn(C2(C)CNC2)c2cc3c(cc12)OCC1=NNC(=O)[C@@H](C)N13 [Example 157] | < 250 | 250 to 1000 | < 250 |
| Cc1cc2c(cc1OC1CNC1)N1C(=NNC(=O)C1C)CO2 (stereo not drawn) [Example 67] | < 250 | 1000 to 10000 | < 250 |
| C[C@@H]1C(=O)NN=C2COc3cc(-c4ccccc4F)c([C@@H]4CCNC4)cc3N21 [Example 215] | < 250 | 1000 to 10000 | < 250 |

| SMILES | IC50 (PKCθ) [nM] | IC50 (PKCα) [nM] | EC50 [1] [nM] |
| --- | --- | --- | --- |
| CC1C(=O)NN=C2COc3cc(-c4cccc(COC(C)(C)C)c4)c(NC4CNC4)cc3N21 (racemic) [Example 40] | 250 to 1000 | 1000 to 10000 | 250 to 1000 |
| C[C@@H]1C(=O)NN=C2COc3cc(C4CC4)c(NC4CNC4)cc3N21 (single isomer, unassigned) [Example 64-1, trifluoroacetic acid] | < 250 | 1000 to 10000 | < 250 |
| CC1C(=O)NN=C2COc3cc(-c4cccc(C#N)c4)c(N(C)C4(C)CN(C)C4)cc3N21 (stereo not drawn) [Example 170] | < 250 | 1000 to 10000 | < 250 |
| Cc1cc2c(cc1NC1CNC1)N1C(=NNC(=O)C1C)CO2 (stereo not drawn) [Example 122, 9-(Azetidin-3-ylamino)-1,8-dimethyl-3,5-dihydrobenzo[5,6][1,4]oxazino[3,4-c][1,2,4]triazin-2(1H)-one ditrifluoroacetic acid] | < 250 | 1000 to 10000 | 1000 to 10000 |
| C[C@H]1C(=O)NN=C2COc3cc(F)c(NC4CNC4)cc3N21 (single isomer, unassigned) [Example 56-1, trifluoroacetic acid] | 250 to 1000 | 1000 to 10000 | 1000 to 10000 |
| CC1C(=O)NN=C2COc3cc(-c4cccc(F)c4)c(NC4CNC4)cc3N21 (racemic) [Example 46] | < 250 | 1000 to 10000 | < 250 |
| CC1C(=O)NN=C2COc3cc(-c4ccccc4F)c(NC4CNC4)cc3N21 (racemic) [Example 42] | < 250 | 1000 to 10000 | < 250 |
| C[C@@H]1C(=O)NN=C2COc3cc(-c4ccccc4F)c(N4[C@@H]5CC[C@H]4CN(C)C5)cc3N21 [Example 235] | < 250 | 250 to 1000 | 250 to 1000 |
| C[C@@H]1C(=O)NN=C2COc3cc(-c4ccccc4F)c([C@@H]4CCN(CCO)C[C@@H]4C)cc3N21 [Example 206] | < 250 | 1000 to 10000 | < 250 |
| C[C@@H]1C(=O)NN=C2COc3cc(-c4c(F)cccc4F)c(C4CCNCC4)cc3N21 [Example 213] | < 250 | 1000 to 10000 | < 250 |
| C[C@@H]1C(=O)NN=C2COc3cc(-c4ccccc4F)c(N(C)C4(C)CN(C[C@@H](C)O)C4)cc3N21 [Example 189] | < 250 | 250 to 1000 | < 250 |
| C[C@@H]1C(=O)NN=C2COc3cc(-c4ccccc4CO)c([C@@H](C)C4(C)CN(C)C4)cc3N21 [Example 135] | < 250 | 250 to 1000 | < 250 |
| C[C@@H]1C(=O)NN=C2COc3cc(-c4ccccc4CO)c(N(C)C4(C)CN(C)C4)cc3N21 [Example 176] | < 250 | 250 to 1000 | < 250 |
| C[C@@H]1C(=O)NN=C2COc3cc(-c4cccc(F)c4)c(NC4CNC4)cc3N21 [Example 6] | < 250 | 1000 to 10000 | < 250 |
| Cc1cc(F)cc(-c2cc3c(cc2NC2CNC2)N2C(=NNC(=O)C2C)CO3)c1 (racemic) [Example 33] | < 250 | 1000 to 10000 | 250 to 1000 |
| C[C@@H]1C(=O)NN=C2COc3cc(-c4ccco4)c([C@@H](C)C4(C)CN(C)C4)cc3N21 [Example 136] | < 250 | 1000 to 10000 | 250 to 1000 |
| CC1C(=O)NN=C2COc3cc(-c4ccc5ncsc5c4)c(NC4CNC4)cc3N21 (racemic) [Example 38] | < 250 | 1000 to 10000 | 250 to 1000 |
| Cc1ccc(F)cc1-c1cc2c(cc1NC1CNC1)N1C(=NNC(=O)C1C)CO2 (racemic) [Example 15] | < 250 | 1000 to 10000 | < 250 |
| CCN(c1cc2c(cc1-c1ccccc1F)OCC1=NNC(=O)C(C)N12)C1(C)CN(C)C1 (stereo not drawn) [Example 166, 6-[(1,3-Dimethyl-azetidin-3-yl)-ethyl-amino]-7-(2-fluoro-phenyl)-4-methyl-2,10-dihydro-9-oxa-1,2,4a-triaza-phenanthren-3-one hydrochloride acid] | < 250 | < 250 | < 250 |
